Columns and labels:
[1] = Suspension of crystalline form W in water, XRPD comparison; assay type: physicochemical; conditions: suspended in water of 20° C. and 60° C. for 4 days; form W prepared in Example 1; FIG. 5
Protocol: (§1) X-ray powder diffraction instrument: Brucker D8 advance X-ray powder diffraction; radiation source: copper target (α=1.540600 Å), scanning at room temperature; voltage: 40 kv; Current: 40 mA; starting 2θ: 2.000°, scanning range: 2.0000-50.000°; step size: 0.020°; measuring time: 12.6 seconds/step.
Crystalline forms W of canagliflozin prepared in Examples 1-7 were suspended in water of 20° C. and 60° C. for 4 days.

[2] = Crystalline form competition experiment: 1:1 mixture of form W and hemihydrate form suspended in water, XRPD comparison; assay type: physicochemical
Protocol: as §1
Crystalline forms W of canagliflozin prepared in Examples 1-7 were mixed with the hemihydrate crystalline of canagliflozin (the product after crystallization) prepared in Example 1 in WO2008069327 in a ratio of 1:1, and the mixtures were suspended in water of 20° C. and 60° C. for 4 days, respectively.

| stability of crystalline form (XRPD pattern) after suspending in water [1] | relative stability in the crystalline form competition experiments ([2]; versus hemihydrate crystalline form, 1:1 mixture in water of 20° C. and 60° C. for 4 days) | Structure (SMILES) | crystalline form transformation in the 1:1 mixture (XRPD pattern) ([2]; 1:1 mixture of form W (Example 1) and hemihydrate form of WO2008069327, suspended in water of 20° C. and 60° C. for 4 days, FIG. 6) |
| --- | --- | --- | --- |
| excellent stability | better stability | Cc1ccc([C@@H]2O[C@H](CO)[C@@H](O)[C@H](O)[C@H]2O)cc1Cc1ccc(-c2ccc(F)cc2)s1 [crystalline form W, 1-(β-D-glucopyranosyl)-4-methyl-3-[5-(4-fluorophenyl)-2-thienylmethyl]benzene] |  |
|  |  | Cc1ccc([C@@H]2O[C@H](CO)[C@@H](O)[C@H](O)[C@H]2O)cc1Cc1ccc(-c2ccc(F)cc2)s1 [hemihydrate crystalline form, 1-(β-D-glucopyranosyl)-4-methyl-3-[5-(4-fluorophenyl)-2-thienylmethyl]benzene, reference compound] | completely transformed into crystalline form W |

— patent US10167306B2, “Crystalline form of 1-(beta-D-glucopyranosyl)-4-methyl-3-[5-(4-fluorophenyl)-2-thienylmethyl]benzene and preparation method thereof” (SHANGHAI DESANO PHARMACEUTICALS INVESTMENT CO., LTD, priority 2015, dated 2019)
